Data: a melting point compilation (Tetko et al.; mined from patent text by program, amines drawn as free bases though some values may be those of a salt)

| SMILES | melting point |
| --- | --- |
| COc1cc2ncc(C#N)c(Nc3cccc(SC)c3)c2cc1OC | > 250 °C |
| CCCn1c(=O)c2c(nc(C=Cc3cc(C)c(C)cc3S(=O)(=O)O)n2C)n(CCC)c1=O | > 280 °C |
| S=C(OCc1ccc(Cl)c(Cl)c1)SC(Cn1ccnc1)c1ccc(Cl)cc1Cl (stereo not given) | 140 °C |
| CC(C)NC(Nc1cc(C(F)(F)F)cc(C(F)(F)F)c1)=C(C#N)S(=O)(=O)c1ccc(Cl)cc1 | 197 to 198 °C |
| CC(C)(O)c1ccc(-c2ccc3nnn(Cc4ccc5ncccc5c4)c3n2)cc1F | 85 to 89 °C |
| CC1=NN=C(C=Cc2ccccc2F)c2cc3c(cc2C1)OCO3 | 138 to 141 °C |
| CN1COCN(Cc2ccc(Cl)nc2)C1=N[N+](=O)[O-] | 116 to 118 °C |
| O=C(c1ccc2c(c1)OCCO2)c1ccc2nc(Cl)nc(-c3cccc(Cl)c3)c2c1 | 198 °C |
| CCOc1c(C(F)(F)F)cc([N+](=O)[O-])c(Nc2ncc(C(F)(F)F)cc2Cl)c1[N+](=O)[O-] | 106 to 108 °C |
| COc1ccc(Cl)cc1-c1c(N)c(=O)[nH]c2c(C(F)(F)F)cccc12 | 265 to 266 °C |
| CC(Cc1cc(NC(=O)NCc2ccccc2)cc2ccoc12)NC(=O)OC(C)(C)C (stereo not given) | 167 to 168 °C |
| CCCc1nc2c(N)nc3ccc(-c4ccc(CN)cc4)cc3c2s1 | 225 to 226 °C |
| CCCCc1nc(Cl)c(C(=O)N2CCCC2)n1Cc1ccc2oc(-c3ccccc3-c3nnn[nH]3)c(Br)c2c1 | 120 to 122 °C |
| CCCCCCCCCC(C)(C)c1cc(C(=O)O)ccc1OC | 112 °C |
| N#Cc1cnc2cc(-c3ccc(CCN4CCOCC4)s3)ccc2c1Nc1ccc(Cl)cc1Cl | 168 to 169 °C |
| CCC1CC(=O)N(Cc2cccc(NC(C)=O)c2)N=C1c1ccc(OC)c(OC)c1 (stereo not given) | 142 °C |
| CC(=O)c1c(C(C)C)nn2c(C)cccc12 | 67.5 to 68 °C |
| O=C(O)Cc1ccc(NC(=O)C(COc2ccccc2)NS(=O)(=O)c2ccc(I)cc2)cc1 (racemic) | 224 to 225 °C |
| Cc1cccc(NC(=O)NC2N=C(c3ccccc3F)c3ccccc3N(CCOC(=O)N3CC4CCC(CC4)C3)C2=O)c1 (racemic) | 169 to 171 °C |
| Cc1ccsc1C(=O)c1sc(Nc2ccc(-n3ccnc3)cc2)nc1N | > 300 °C |

| SMILES | melting point |
| --- | --- |
| COc1cc2ncc(C#N)c(Nc3ccccc3SC)c2cc1OC | 245 to 247 °C |
| O=C(O)c1ccc(CO[N+](=O)[O-])cc1 | 159 to 161 °C |
| CCCCc1nc(C(C)=O)c(C#N)[nH]1 | 77 to 78 °C |
| COCCN1C(=O)C(C)(C)C(=O)Nc2cc(CN(CCn3cc(C)c4occc4c3=O)Cc3cccnc3C)ccc21 | 205 to 206 °C |
| O=CN(Cc1cccc2ccccc12)c1cccc(NC(=O)c2cc(Cl)cc(Cl)c2)c1 | 205 to 208 °C |
| OC(CCc1ccccc1)Cn1ccnc1 (stereo not given) | 106 to 107 °C |
| O=C(O)C1C2CC3C(C2=O)C31 (stereo not given) | 144 to 145 °C |
| O=C(O)CCCCCOc1cc(-c2ccc(NC(=O)C(F)(F)F)cc2)cc(-c2ccccc2)n1 | 178 to 180 °C |
| O=C(Nc1ccc(CN2C(=O)[C@H]3CCC[C@H]3N(C(=O)CN3C(=O)c4ccccc4C3=O)c3ccccc32)cc1)c1ccccc1F (relative stereo) | 238 to 240 °C |
| COc1nc(C(F)(F)C(F)(F)F)cc(=O)n1-c1cc(C(=O)O)c(Cl)cc1F | 197 to 199 °C |
| CC(C)OCc1cc2ccccc2oc1=Nc1ccccc1 | 107 to 108 °C |
| COc1ccc(-c2cc3c(OC)cc(OC)cc3nc2OCC(=O)OCc2ccccc2)cc1 | 114 to 115 °C |
| O=C(O)C1=Cc2cc(Cl)c(Oc3ccc([N+](=O)[O-])cc3)cc2OC1C(F)(F)F (stereo not given) | 246 to 248 °C |
| Cn1ccc2ccc(NC(=O)/C=C/c3ccc(C(C)(C)C)cc3)cc21 | 95 °C |
| CSC(=C(N)c1ccc2oc(C)cc2c1)S(C)=O (stereo not given) | 185 to 186 °C |
| CCOc1cc(CCCC2OC(=O)NC2=O)ccc1OCc1nc(-c2ccccc2)oc1C (stereo not given) | 129 to 130 °C |
| CCOCCOc1ccc(-c2nc(-c3ccc(OC)cc3)nc(-c3ccc(OCCOCC)cc3O)n2)c(O)c1 | 155 to 158 °C |
| CCCCCCCCCCCC(=O)N[C@H](CC(=O)c1ccc2ccccc2c1)C(=O)OCC | 75 to 76 °C |
| c1ccc(C2COc3cccc4c5c(OCCN6CCNCC6)cccc5n2c34)cc1 (stereo not given) | 72 °C |
| CCC(CC)n1ccn(-c2ccc(N3CCN(c4ccc(OC)cc4)CC3)cc2)c1=O | 196 °C |

| SMILES | melting point |
| --- | --- |
| CC(C)c1nsc2c1C(=O)N(C(C)(C)C)C2=O | 52 to 53 °C |
| Cc1ccc(S(=O)(=O)n2cc(C=O)c3ccc(C(=O)Nc4c(Cl)cncc4Cl)cc32)cc1 | 245 °C |
| C=CCCc1ccc(C=NN=Cc2ccc(CCC=C)cc2)cc1 | 57 °C |
| O=C(CCCN1CCC(c2ccc(Cl)cc2)CC1)c1ccc2c(c1)CCN(Cc1ccccc1)CC2 | 99 to 100 °C |
| COc1cc(OC)nc(C(C#N)c2ccccc2[N+](=O)[O-])n1 (stereo not given) | 88 to 89 °C |
| CSc1nc2ccc(Br)cc2c(=O)[nH]1 | 230 °C |
| CC(C)(C)OC(=O)NCC(=O)Nn1cccc1C(=O)c1ccccc1F | 114 to 116 °C |
| COC(=O)Cn1c(C(=O)NC(N)=S)c(C)c2cc(C)ccc21 | 210 to 212 °C |
| NC(=O)OC[C@H](Cc1ccccc1)NC(=O)OCc1ccccc1 | 121 to 128 °C |
| COc1cc(Br)c2nc(-c3ccc(OC)c(F)c3)cc(Br)c2c1 | 178 to 179 °C |
| COC(c1nnco1)c1ccccc1COc1ccc(Cl)cc1C (stereo not given) | 68 to 70 °C |
| O=C(O)CCc1ccc(C(=O)CCl)cc1 | 151 to 153 °C |
| CCOC(=O)c1cn(C(C)CCl)c2c(F)c(F)c(F)cc2c1=O (stereo not given) | 190 to 191 °C |
| O=C(O)c1ccc(-c2ccc(Cl)cc2)cc1 | 191 to 192 °C |
| CCOC(=O)C1(C(=O)OCC)C(CC)CC(O)N1C(C)=O (stereo not given) | 106 to 109 °C |
| Nc1cccc(-c2ccc3nncn3n2)c1 | 225 °C |
| CCc1ccc(C=Nc2ccc(C#N)cc2)cc1 | 76.2 to 77 °C |
| CN1C(=O)N(CC(COc2ccc(-c3ccncc3)cc2)N(O)C=O)C(=O)C1(C)C (stereo not given) | 217 to 218 °C |
| Clc1ccc2nc(-c3ccccc3)oc2n1 | 150 to 151 °C |

More lines, now with the values ahead:

| melting point | SMILES |
| --- | --- |
| 168 °C | CC(C)N(C(C)C)S(=O)(=O)N[C@@H](Cc1ccc(Nc2nccc3cnccc23)cc1)C(=O)O |
| 107 to 111 °C | Nc1cccc2c1CCCCC2 |
| 192 °C | COC(=Cc1ccc(-c2cccc(N(C)C(=O)NC3CCCCC3)c2)cc1)C(=O)O |
| 150 to 152 °C | CC(=O)NC[C@H]1CN(c2ccc(N3CCC4(CC3)NCCS4)c(F)c2)C(=O)O1 |
| 194 to 196 °C | CCOc1ccccc1-c1nc2cc3nc[nH]c3cc2c(=O)[nH]1 |
| 117 to 119 °C | CCOC(=O)Oc1ccc(S(=O)(=O)N2c3ccc(Cl)cc3-n3cccc3C2CC)cc1 (stereo not given) |
| 238 to 240 °C | O=C(O)CC1(O)CCC(N2CCN(CCNc3ccncc3)CC2)CC1 (stereo not given) |
| 158 °C | Cc1cc(OS(=O)(=O)c2c(F)cccc2F)cc2c(C3CCN(C)CC3)cn(Cc3ccccc3)c12 |
| 143 °C | OC1CSC(Oc2cc(F)cnc2Cl)C(O)C1O (stereo not given) |
| 151 to 152 °C | CN1CCN(c2cccc3c2C[C@H](NC(=O)Cc2ccccc2)CC3)CC1 |
| 178 to 180 °C | FC(F)(F)c1ccc(-c2cc(Oc3ccc4cccnc4c3)ncn2)cc1 |
| > 350 °C | CCCn1c(=O)c2nc(-c3ccc(/C=C/C(=O)O)cc3)[nH]c2n(CC2CCCCC2)c1=O |
| 105 to 108 °C | CN(C)CCN(C(N)=O)c1cnccn1 |
| 84 to 87 °C | COc1ncccc1C(=O)NCCc1ccncc1 |
| 252 to 254 °C | CCCC(=O)c1c[nH]c2ccc(OC)cc2c1=O |
| 143 to 145 °C | O=C(NCc1cccs1)C12CC3CC(CC1C3)C2 |
| 116 °C | O=C1[C@@H]2C[C@H](Oc3ccc(Br)cc3)CN2C(=O)N1c1cc(Cl)cc(Cl)c1 |
| 182 to 184 °C | O=C(Nc1c[nH]nc1C(=O)NCCCOc1ccccc1)c1ccccn1 |
| 45 to 47 °C | CCOC(=O)CC(=O)N1C(C(=O)OC(C)(C)C)CCCN1C(=O)OCc1ccccc1 (stereo not given) |
| 132 to 133 °C | O=C1NCCc2c(OCCCCl)cccc21 |
| 142 to 146 °C | CCC(=O)COc1ccc(CC2SC(=O)NC2=O)cc1 (stereo not given) |

| melting point | SMILES |
| --- | --- |
| 156 to 158 °C | Cc1cc(N2CCC3(CC2)OCCO3)c2cccc(Br)c2n1 |
| 140 to 143 °C | CCC1(CC(=O)O)CCCc2c1n(C)c1ccccc21 (stereo not given) |
| 207 to 208 °C | COc1cc(C)c(NS(C)(=O)=O)cc1C(=O)NCC1CCCO1 (stereo not given) |
| 45 to 49 °C | C=C1CCCc2c(C(=O)OCC)n(C)c3cccc1c23 |
| 138 to 139 °C | CC(N)=CC(=O)NC1CCCC1 |
| 147 °C | Fc1ccc(Cn2c(NC3CCN(CCOc4nc5ccccc5s4)CC3)nc3ccccc32)cc1 |
| 228 to 230 °C | CCCCOC(=O)NC1CCN(c2c(F)cc3c(=O)c(C(=O)O)cn(C4CC4)c3c2F)C1 (stereo not given) |
| 182 to 184 °C | CCOC(=O)C1=C(C)NC(C)=C(C(=O)OCC)C1c1ccccc1/C=C/C(=O)OC1CCCC1 |
| 124 to 127 °C | CCOC(=O)C=Cc1ccc(Cl)cc1NS(=O)(=O)c1ccc(C)cc1 |
| 82 to 84 °C | CCCNCC1Cc2ccc(C3=NNC(=O)CC3)cc2C1 (stereo not given) |
| 210 to 215 °C | CC(C)COC(=O)Nc1nc(N2CC=CCC2)nc2nc(=O)on12 |
| 134 to 135 °C | NS(=O)(=O)c1cccnc1OC1CCCC1 |
| 185 °C | NC(=O)Cc1c(N)cc(Br)cc1OCc1ccccc1 |
| 166 °C | Cc1ccc(C(=O)CCl)cc1S(N)(=O)=O |
| 168 to 170 °C | O=C(/C=C/c1ccn(S(=O)(=O)c2ccc(CN3CCOCC3)cc2)c1)NO |
| 210 to 212 °C | Cc1nc2c(c(Cl)c1C(=O)NC(=N)N)CCCCC2 |
| 223 to 226 °C | CCN(CC)C(=O)COc1ccc(S(=O)(=O)c2ccc(O)cc2)cc1 |
| 150 to 153 °C | CCOC(=O)c1cnc(C(=O)O)cn1 |
| 120 to 122 °C | CC(/C=C1/C(=O)N(c2ccccc2)C1c1ccccc1)=NOCCCN1CCCCC1 (stereo not given) |
| 195 to 197 °C | O=S(=O)(NC1CCCCC1)c1ccc2c(c1)S(=O)(=O)NC1CCCN21 (stereo not given) |
